The values that follow come from patent US9018188B2, “MicroRNA inhibitors” (Ottawa Hospital Research Institute, priority 2011, dated 2015).

This test is described as follows: Indirect calorimetry, physical activity and food intake. The class given is in vivo, mouse. The text has this: To assess whether miR-133 ASO treatment leads to increased whole-body energy expenditure, Applicant carried out indirect calorimetry studies at 2-3 months after ASO treatment on control- and miR-133 ASO treated mice (C57BL/6, male, individually caged, n=5 per treatment group per diet group; FIGS. 6C & 7B). […] Intriguingly, this amount of energy expenditure is coincident with the increase of mitochondrial respirometry-measured energy expenditure in miR-133 ASO treated TA muscles after adjustment with TA muscle mass (FIG. 7A; 0.3 cal·hour^−1·le^−1×75 mg=0.0225 kcal·hour^−1).
This discrepancy may be related to the abnormally low respiratory exchange ratio (˜0.76) in the control mice fed with HFD (FIG. 7D), which indicates an increased proportion of lipid oxidation in the control mice. […] In addition, miR-133 ASO treatment also led to much improved glucose tolerance in both diet groups (FIGS. 6E & 7F).
Whole-body O2 consumption and CO2 production was measured using an open circuit four-chamber indirect calorimetry system with automatic temperature and light controls (Columbus Instruments). Physical activities during indirect calorimetry was measured using infrared laser beam sets. Mice had access ad libitum to food and water in respiration chambers. Data were recorded for a 24 hour period with light between 06:00-18:00.

For the substance “*mA*mUmAmGmCmUmGmGmUmUmGmAmAmGmGmGmGmAmC*mC*mA*mA*mAChl [miR-133 ASO]”, the “energy expenditure or physical activity compared to control mice” value (HFD, dark cycle) was “No significant increase”. In addition, the physical activities result is recorded as “without difference” (HFD, light cycle); “increased” (RD, dark cycle); “without change” (RD, light cycle). Also, the total energy expenditure entry is, setting by setting: (HFD, light cycle) “significantly increased”; (RD, light cycle, 2-3 months after treatment) “significant increase”. Besides, where the note is “RD, dark cycle”, the energy expenditure entry is reported as “conspicuously high”. For the same substance, the “24-hour food intake versus control mice” value (both diet groups) was “comparable”.
